# What was measured:
# [1] = target: Tyrosine-protein kinase ABL2 (Homo sapiens) (UniProt P42684); assay: Inhibition of ARG at 10 uM
# [2] = target: Discoidin domain-containing receptor 2 (Homo sapiens) (UniProt Q16832); assay: Inhibition of DDR2 at 10 uM
# [3] = target: Tyrosine-protein kinase Fyn (Homo sapiens) (UniProt P06241); assay: Inhibition of FYN at 10 uM
# [4] = target: Tyrosine-protein kinase HCK (Homo sapiens) (UniProt P08631); assay: Inhibition of HCK at 10 uM
# [5] = target: Insulin receptor-related protein (Homo sapiens) (UniProt P14616); assay: Inhibition of IRR at 10 uM
# Insulin receptor-related protein (Homo sapiens), sequence (P14616 27-742 limits assumed): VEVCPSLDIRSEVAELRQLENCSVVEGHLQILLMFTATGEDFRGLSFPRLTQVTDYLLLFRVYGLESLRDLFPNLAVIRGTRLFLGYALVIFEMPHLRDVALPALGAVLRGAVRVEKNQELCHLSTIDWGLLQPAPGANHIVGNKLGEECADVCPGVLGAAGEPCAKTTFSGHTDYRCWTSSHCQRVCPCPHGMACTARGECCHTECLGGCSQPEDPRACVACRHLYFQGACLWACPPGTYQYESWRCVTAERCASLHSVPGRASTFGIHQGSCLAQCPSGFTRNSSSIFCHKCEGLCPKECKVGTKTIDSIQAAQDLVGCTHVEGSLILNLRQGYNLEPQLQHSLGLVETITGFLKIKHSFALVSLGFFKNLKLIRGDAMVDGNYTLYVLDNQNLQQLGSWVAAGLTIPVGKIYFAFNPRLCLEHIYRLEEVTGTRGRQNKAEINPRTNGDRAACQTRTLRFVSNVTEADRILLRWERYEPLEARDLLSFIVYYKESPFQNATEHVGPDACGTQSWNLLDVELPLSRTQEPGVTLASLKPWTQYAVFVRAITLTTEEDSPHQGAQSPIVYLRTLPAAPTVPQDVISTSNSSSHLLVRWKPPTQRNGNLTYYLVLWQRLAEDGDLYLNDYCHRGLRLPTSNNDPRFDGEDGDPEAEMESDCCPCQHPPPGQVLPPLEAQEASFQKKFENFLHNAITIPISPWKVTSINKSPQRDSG
# Insulin receptor-related protein (Homo sapiens), sequence (P14616 747-1297 limits assumed): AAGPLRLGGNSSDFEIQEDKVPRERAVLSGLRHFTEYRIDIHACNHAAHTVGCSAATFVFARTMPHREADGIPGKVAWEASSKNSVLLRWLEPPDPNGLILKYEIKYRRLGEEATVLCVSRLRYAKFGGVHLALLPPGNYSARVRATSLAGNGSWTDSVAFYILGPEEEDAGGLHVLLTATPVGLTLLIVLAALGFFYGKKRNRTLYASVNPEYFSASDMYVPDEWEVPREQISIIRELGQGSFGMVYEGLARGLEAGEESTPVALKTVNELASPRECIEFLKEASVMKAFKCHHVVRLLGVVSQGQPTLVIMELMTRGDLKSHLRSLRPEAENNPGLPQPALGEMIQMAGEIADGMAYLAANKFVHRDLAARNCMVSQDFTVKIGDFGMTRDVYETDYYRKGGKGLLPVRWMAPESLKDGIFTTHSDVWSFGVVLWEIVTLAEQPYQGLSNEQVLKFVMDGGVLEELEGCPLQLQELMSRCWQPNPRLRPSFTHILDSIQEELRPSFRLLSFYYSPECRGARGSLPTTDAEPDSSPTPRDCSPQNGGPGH
# [6] = target: Tyrosine-protein kinase JAK1 (Homo sapiens) (UniProt P23458); assay: Inhibition of JAK1 at 10 uM
# [7] = tested on: Mast/stem cell growth factor receptor Kit (Homo sapiens), P10721 [T670I]; assay: Inhibition of KIT T670I mutant at 10 uM
# [8] = tested on: Platelet-derived growth factor receptor alpha (Homo sapiens), P16234 [T674I]; assay: Inhibition of PDGFRa T674I mutant at 10 uM
# [9] = target: High affinity nerve growth factor receptor (Homo sapiens) (UniProt P04629); assay: Inhibition of TRKA at 10 uM
# [10] = target: Tyrosine-protein kinase receptor TYRO3 (Homo sapiens) (UniProt Q06418); assay: Inhibition of TYRO3 at 10 uM
# [11] = target: Tyrosine-protein kinase ZAP-70 (Homo sapiens) (UniProt P43403); assay: Inhibition of ZAP70 at 10 uM
# [12] = target: Serine/threonine-protein kinase B-raf (Homo sapiens) (UniProt P15056); assay: Inhibition of BRAF at 10 uM
# Serine/threonine-protein kinase B-raf (Homo sapiens), sequence (P15056 whole entry): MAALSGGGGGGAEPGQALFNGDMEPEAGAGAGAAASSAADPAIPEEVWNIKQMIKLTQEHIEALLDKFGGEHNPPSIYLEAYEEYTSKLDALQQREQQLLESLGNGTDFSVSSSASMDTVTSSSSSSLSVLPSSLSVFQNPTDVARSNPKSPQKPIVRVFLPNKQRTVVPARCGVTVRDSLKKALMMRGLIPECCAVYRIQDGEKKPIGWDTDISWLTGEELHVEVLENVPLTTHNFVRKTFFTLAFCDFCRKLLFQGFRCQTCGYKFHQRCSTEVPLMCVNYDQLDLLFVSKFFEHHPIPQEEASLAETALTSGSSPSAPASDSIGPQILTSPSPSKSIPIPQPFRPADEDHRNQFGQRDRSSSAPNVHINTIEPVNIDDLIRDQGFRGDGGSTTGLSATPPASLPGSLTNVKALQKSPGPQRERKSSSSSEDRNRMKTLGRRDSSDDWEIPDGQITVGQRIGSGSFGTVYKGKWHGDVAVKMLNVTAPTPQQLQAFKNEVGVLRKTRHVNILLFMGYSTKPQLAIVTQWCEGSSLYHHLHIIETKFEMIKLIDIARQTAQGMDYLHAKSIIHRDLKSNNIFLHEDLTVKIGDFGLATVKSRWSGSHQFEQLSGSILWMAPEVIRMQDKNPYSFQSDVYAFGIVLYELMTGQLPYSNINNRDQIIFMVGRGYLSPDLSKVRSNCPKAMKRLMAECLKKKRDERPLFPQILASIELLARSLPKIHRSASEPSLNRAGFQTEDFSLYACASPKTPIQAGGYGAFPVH
# [13] = target: Calcium/calmodulin-dependent protein kinase type II subunit gamma (Homo sapiens) (UniProt Q13555); assay: Inhibition of CaMK2g at 10 uM
# [14] = target: Cyclin-dependent kinase 7/ cyclin H (Homo sapiens) (UniProt P51946+P50613); assay: Inhibition of CDK7-CycH-MAT1 at 10 uM; type: protein-complex assay
# [15] = target: Casein kinase I isoform gamma-2 (Homo sapiens) (UniProt P78368); assay: Inhibition of CK1g2 at 10 uM
# [16] = target: Citron Rho-interacting kinase (Homo sapiens) (UniProt O14578); assay: Inhibition of CRIK at 10 uM
# [17] = target: Glycogen synthase kinase-3 alpha (Homo sapiens) (UniProt P49840); assay: Inhibition of GSK3a at 10 uM
# [18] = target: Homeodomain-interacting protein kinase 4 (Homo sapiens) (UniProt Q8NE63); assay: Inhibition of HIPK4 at 10 uM
# [19] = target: Inhibitor of nuclear factor kappa-B kinase subunit alpha (Homo sapiens) (UniProt O15111); assay: Inhibition of IKKa at 10 uM
# [20] = target: Interleukin-1 receptor-associated kinase 1 (Homo sapiens) (UniProt P51617); assay: Inhibition of IRAK1 at 10 uM
# [21] = target: LIM domain kinase 1 (Homo sapiens) (UniProt P53667); assay: Inhibition of LIMK1 at 10 uM
# [22] = target: MAP kinase-activated protein kinase 5 (Homo sapiens) (UniProt Q8IW41); assay: Inhibition of MAPKAPK5 at 10 uM
# [23] = target: Mitogen-activated protein kinase kinase kinase 10 (Homo sapiens) (UniProt Q02779); assay: Inhibition of MLK2 at 10 uM
# [24] = target: MAP kinase-interacting serine/threonine-protein kinase 2 (Homo sapiens) (UniProt Q9HBH9); assay: Inhibition of MNK2 at 10 uM
# MAP kinase-interacting serine/threonine-protein kinase 2 (Homo sapiens), sequence (Q9HBH9 whole entry, looked up): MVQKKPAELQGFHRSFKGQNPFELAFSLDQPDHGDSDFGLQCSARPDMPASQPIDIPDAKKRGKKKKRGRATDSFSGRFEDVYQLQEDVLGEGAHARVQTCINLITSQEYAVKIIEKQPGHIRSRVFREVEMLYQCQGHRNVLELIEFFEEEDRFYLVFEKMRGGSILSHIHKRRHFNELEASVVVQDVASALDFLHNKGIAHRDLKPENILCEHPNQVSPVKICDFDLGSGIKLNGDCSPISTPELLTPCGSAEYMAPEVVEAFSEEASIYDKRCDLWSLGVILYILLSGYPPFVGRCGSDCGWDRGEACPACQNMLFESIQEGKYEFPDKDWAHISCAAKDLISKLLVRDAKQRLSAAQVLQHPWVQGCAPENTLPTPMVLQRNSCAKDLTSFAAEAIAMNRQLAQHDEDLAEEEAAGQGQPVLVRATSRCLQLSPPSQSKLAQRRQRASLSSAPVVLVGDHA
# [25] = target: Serine/threonine-protein kinase MRCK alpha (Homo sapiens) (UniProt Q5VT25); assay: Inhibition of MRCKa at 10 uM
# [26] = target: Serine/threonine-protein kinase MRCK beta (Homo sapiens) (UniProt Q9Y5S2); assay: Inhibition of MRCKb at 10 uM
# [27] = target: Serine/threonine-protein kinase 4 (Homo sapiens) (UniProt Q13043); assay: Inhibition of MST1 at 10 uM
# [28] = target: Ribosomal protein S6 kinase beta-2 (Homo sapiens) (UniProt Q9UBS0); assay: Inhibition of p70S6Kb at 10 uM
# [29] = target: Serine/threonine-protein kinase PAK 1 (Homo sapiens) (UniProt Q13153); assay: Inhibition of PAK1 at 10 uM
# [30] = target: Serine/threonine-protein kinase pim-3 (Homo sapiens) (UniProt Q86V86); assay: Inhibition of PIM3 at 10 uM
# [31] = target: Protein kinase C epsilon type (Homo sapiens) (UniProt Q02156); assay: Inhibition of PKCepsilon at 10 uM
# Protein kinase C epsilon type (Homo sapiens), sequence (Q02156 whole entry): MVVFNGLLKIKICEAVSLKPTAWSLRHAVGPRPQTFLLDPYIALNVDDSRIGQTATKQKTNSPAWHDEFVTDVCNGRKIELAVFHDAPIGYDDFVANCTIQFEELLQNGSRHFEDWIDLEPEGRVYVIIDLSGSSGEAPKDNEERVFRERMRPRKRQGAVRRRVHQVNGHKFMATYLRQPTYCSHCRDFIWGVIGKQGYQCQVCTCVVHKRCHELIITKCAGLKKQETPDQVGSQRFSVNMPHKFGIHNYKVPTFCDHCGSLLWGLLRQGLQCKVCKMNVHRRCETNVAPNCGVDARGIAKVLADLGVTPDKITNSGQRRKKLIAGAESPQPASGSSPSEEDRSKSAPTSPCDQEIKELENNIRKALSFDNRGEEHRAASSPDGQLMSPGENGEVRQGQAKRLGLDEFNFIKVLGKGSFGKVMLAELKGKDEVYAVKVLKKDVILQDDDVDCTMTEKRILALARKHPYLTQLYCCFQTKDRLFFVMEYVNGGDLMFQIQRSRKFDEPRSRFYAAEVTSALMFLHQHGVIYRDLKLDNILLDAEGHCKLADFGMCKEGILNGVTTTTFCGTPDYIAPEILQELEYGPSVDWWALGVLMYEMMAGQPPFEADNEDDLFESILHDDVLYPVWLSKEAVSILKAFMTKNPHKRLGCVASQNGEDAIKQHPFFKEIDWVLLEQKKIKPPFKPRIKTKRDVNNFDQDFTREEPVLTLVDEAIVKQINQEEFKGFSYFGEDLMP
# [32] = target: Serine/threonine-protein kinase D3 (Homo sapiens) (UniProt O94806); assay: Inhibition of PKD3 at 10 uM
# [33] = target: RAF proto-oncogene serine/threonine-protein kinase (Homo sapiens) (UniProt P04049); assay: Inhibition of RAF1 at 10 uM
# RAF proto-oncogene serine/threonine-protein kinase (Homo sapiens), sequence (P04049 whole entry): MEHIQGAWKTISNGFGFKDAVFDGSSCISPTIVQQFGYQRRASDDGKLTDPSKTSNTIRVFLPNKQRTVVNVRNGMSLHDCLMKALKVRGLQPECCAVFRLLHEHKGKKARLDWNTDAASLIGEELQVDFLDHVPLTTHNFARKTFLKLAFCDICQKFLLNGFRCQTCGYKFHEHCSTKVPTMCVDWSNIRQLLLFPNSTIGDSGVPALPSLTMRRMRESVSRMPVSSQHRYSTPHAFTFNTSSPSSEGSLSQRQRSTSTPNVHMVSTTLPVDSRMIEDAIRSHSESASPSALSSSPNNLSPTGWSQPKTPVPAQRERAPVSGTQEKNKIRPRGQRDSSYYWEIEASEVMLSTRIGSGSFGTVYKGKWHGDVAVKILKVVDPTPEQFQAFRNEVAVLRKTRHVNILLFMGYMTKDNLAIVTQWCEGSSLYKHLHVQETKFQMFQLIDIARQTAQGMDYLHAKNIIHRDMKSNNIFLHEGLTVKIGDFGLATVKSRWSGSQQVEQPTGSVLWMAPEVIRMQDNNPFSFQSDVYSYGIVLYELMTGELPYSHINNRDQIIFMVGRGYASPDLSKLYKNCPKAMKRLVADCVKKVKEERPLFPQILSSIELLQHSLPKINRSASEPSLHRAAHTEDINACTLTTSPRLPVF
# [34] = target: Serine/threonine-protein kinase Sgk3 (Homo sapiens) (UniProt Q96BR1); assay: Inhibition of SGK3 at 10 uM
# [35] = target: Myosin light chain kinase 2, skeletal/cardiac muscle (Homo sapiens) (UniProt Q9H1R3); assay: Inhibition of skMLCK at 10 uM
# [36] = target: SRSF protein kinase 1 (Homo sapiens) (UniProt Q96SB4); assay: Inhibition of SRPK1 at 10 uM
# [37] = target: Testis-specific serine/threonine-protein kinase 2 (Homo sapiens) (UniProt Q96PF2); assay: Inhibition of TSSK2 at 10 uM
# [38] = target: T1, Dual specificity tyrosine-phosphorylation-regulated kinase 2 (Homo sapiens, UniProt Q92630)
# T1 sequence (Q92630 whole entry): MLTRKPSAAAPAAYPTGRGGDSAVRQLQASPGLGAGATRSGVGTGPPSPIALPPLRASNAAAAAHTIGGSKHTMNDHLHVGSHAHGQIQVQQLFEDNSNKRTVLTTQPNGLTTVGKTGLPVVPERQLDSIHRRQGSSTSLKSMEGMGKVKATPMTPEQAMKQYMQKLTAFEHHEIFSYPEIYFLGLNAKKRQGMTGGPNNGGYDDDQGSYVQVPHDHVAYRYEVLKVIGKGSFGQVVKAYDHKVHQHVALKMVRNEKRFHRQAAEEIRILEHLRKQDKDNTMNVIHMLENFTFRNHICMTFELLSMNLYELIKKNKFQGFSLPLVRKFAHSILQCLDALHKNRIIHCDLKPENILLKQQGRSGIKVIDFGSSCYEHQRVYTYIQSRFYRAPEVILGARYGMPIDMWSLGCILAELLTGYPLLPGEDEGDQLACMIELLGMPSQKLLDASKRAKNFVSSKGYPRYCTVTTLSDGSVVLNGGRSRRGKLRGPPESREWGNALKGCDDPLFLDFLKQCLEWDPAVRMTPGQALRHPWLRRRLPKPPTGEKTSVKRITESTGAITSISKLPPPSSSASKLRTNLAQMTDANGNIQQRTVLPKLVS
# Tyrosine-protein kinase Fyn (Homo sapiens), sequence (P06241 2-537 limits assumed): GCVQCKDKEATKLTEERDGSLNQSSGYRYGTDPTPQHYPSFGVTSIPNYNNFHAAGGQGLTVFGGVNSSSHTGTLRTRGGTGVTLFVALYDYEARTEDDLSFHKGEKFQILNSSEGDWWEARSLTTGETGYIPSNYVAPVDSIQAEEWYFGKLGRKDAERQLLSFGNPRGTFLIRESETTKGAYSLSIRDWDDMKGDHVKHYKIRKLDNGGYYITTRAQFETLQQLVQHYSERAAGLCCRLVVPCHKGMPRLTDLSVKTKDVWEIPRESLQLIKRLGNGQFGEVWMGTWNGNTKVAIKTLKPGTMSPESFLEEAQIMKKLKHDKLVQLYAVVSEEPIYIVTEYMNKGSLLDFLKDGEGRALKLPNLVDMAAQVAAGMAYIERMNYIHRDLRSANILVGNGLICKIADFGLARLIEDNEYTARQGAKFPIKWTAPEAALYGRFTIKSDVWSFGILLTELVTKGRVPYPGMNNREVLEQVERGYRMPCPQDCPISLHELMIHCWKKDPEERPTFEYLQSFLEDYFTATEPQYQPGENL
structure (smiles),measurement,setting,value
COc1ccc2c3ccnc(C(F)(F)F)c3n(CCCCN)c2c1,inhibition,[1],0%
same,inhibition,[2],7%
same,inhibition,[3],8%
same,inhibition,[4],1%
same,inhibition,[5],0%
same,inhibition,[6],0%
same,inhibition,[7],16%
same,inhibition,[8],49%
same,inhibition,[9],8%
same,inhibition,[10],16%
same,inhibition,[11],3%
same,inhibition,[12],0%
same,inhibition,[13],78%
same,inhibition,[14],93%
same,inhibition,[15],60%
same,inhibition,[16],86%
same,inhibition,[17],48%
same,inhibition,[18],28%
same,inhibition,[19],7%
same,inhibition,[20],53%
same,inhibition,[21],8%
same,inhibition,[22],1%
same,inhibition,[23],5%
same,inhibition,[24],34%
same,inhibition,[25],18%
same,inhibition,[26],27%
same,inhibition,[27],14%
same,inhibition,[28],75%
same,inhibition,[29],3%
same,inhibition,[30],89%
same,inhibition,[31],72%
same,inhibition,[32],92%
same,inhibition,[33],0%
same,inhibition,[34],13%
same,inhibition,[35],34%
same,inhibition,[36],7%
same,inhibition,[37],5%
same,IC50,[38],15 µM

# Reference: ChEMBL document CHEMBL2010722, “Structure-activity relationship study of beta-carboline derivatives as haspin kinase inhibitors” (Bioorg Med Chem Lett, 2012)
